Data taken from paper doi:10.1101/2025.10.10.681657 (bioRxiv, 2025).

Legend:
[1] = target: U4/U6 snRNA construct (92 nt); assay: SPR binding to U4/U6 snRNA construct (92 nt); design: species or system yeast; conditions: 92 nt RNA, steady-state fit; >100 = signal appeared at 100 μM but failed to fit
Protocol: SPR experiments were carried out using an SPR optical biosensor (BIAcore 3000, Cytiva, USA) based on reported methods with minor modifications.[35] To avoid RNA degradation during long-time injections, the whole microfluidic system was washed by priming 50% RNase Zap buffer and RNase-free water one day before the experiments. Then, by using running buffer (1xPBS, pH7.4, 0.005% Tween 20, 5% DMSO) at a flow rate of 5 μL/min, the binding assays were performed. In brief, a CM5 chip surface coated with carboxylated dextran was activated by standard EDC/NHS amine-coupling protocol and then conjugated with streptavidin (200 ng/mL in 10 mM sodium acetate buffer, pH 4.5) for 30 min, resulting in 4000~6000 response units (RUs) signal. After streptavidin conjugation, the surface was deactivated (1 M ethanolamine, pH 8.5) for 10 min and regenerated (10 mM NaOH) for 2 min to remove unbound SA. Then, the folded U4/U6 RNA with biotin-label at 5′ end was prepared (according to the above-mentioned method) at 5 μM and injected in flow-cell (Fc) 2 for 30 min while Fc1 was kept blank as a reference. Then, the system continued flowing the running buffer until the baseline was stable before future steps.
To detect binding between small molecules and U4/U6 snRNA, a 50 μL compound solution was applied to both Fc1 and Fc2 channels simultaneously at a higher flow rate (25 μL/min). The binding curve contains 120 s association and 200 s dissociation. A pulse of 10 mM NaOH injection was used for regeneration if needed. To measure the dissociation constant (KD), titrations of compound solutions with a serial dilution were applied. The KD value was then calculated by fitting the binding curves based on a steady-state model in BIAevaluation 4.0 software and plotted in GraphPad Prism 9.

[2] = tested on: U4/U6 snRNA construct 92 nt (WT, No. 1) (RNA, junction) GGCCUUAUGCACGGGAAAUACGCAUAUCAGUGAGGAUUCGUCCGAGAUUGUGUUUUUGCUGGUGUAAAUCAGCAGUUCCCCUGCAUAAGGCU; assay: SPR steady state; conditions: 1x PBS, pH 7.4, 0.005% Tween 20, 5% DMSO

| Structure (SMILES) | Kd [1] | KD [2] | KD ([2]; signal at 100 μM, not fitted) |
| --- | --- | --- | --- |
| CCc1nnc(-c2nnc(NCCN(C)C)c3ccccc23)o1 [Compound 3] | 29.2 ± 8.6 µM | 29.2 ± 8.6 µM |  |
| CCc1nnc(-c2nnc(NCCN(CC)CC)c3ccccc23)o1 [Compound 4] | > 100 µM |  | > 100 µM |
| CCCCNc1nnc(-c2nnc(CC)o2)c2ccccc12 [Compound 5] | > 100 µM |  |  |
| CCc1nnc(-c2nnc(NCCOC)c3ccccc23)o1 [Compound 6] | > 100 µM |  |  |
| CCc1nnc(-c2nnc(NCCCOC)c3ccccc23)o1 [Compound 7] | > 100 µM |  |  |
| CCc1nnc(-c2nnc(NCCCN3CCOCC3)c3ccccc23)o1 [Compound 9] | 61.3 ± 38.9 µM | 61.3 ± 38.9 µM |  |
| CCc1nnc(-c2nnc(NCCCN3CCN(C)CC3)c3ccccc23)o1 [Compound 10] | 51.4 ± 8 µM | 51.4 ± 8.0 µM |  |
| CCc1nnc(-c2nnc(NCCC(C)C)c3ccccc23)o1 [Compound 11] | > 100 µM |  |  |
| CCN(CC)CCNc1nnc(-c2nnc(C3CC3)o2)c2ccccc12 [Compound 12] | 24.2 ± 7 µM | 24.2 ± 7.0 µM |  |
| COCCNc1nnc(-c2nnc(C3CC3)o2)c2ccccc12 [Compound 13] | > 100 µM |  |  |
| CCN(CC)CCNc1nnc(-c2nc(C3CC3)no2)c2ccccc12 [Compound 15] | 23.4 ± 6 µM | 23.4 ± 6.0 µM |  |
| c1ccc2c(-c3nc(C4CC4)no3)nnc(NCCN3CCOCC3)c2c1 [Compound 19] | 34.5 ± 11.3 µM | 34.5 ± 11.3 µM |  |
| c1ccc2c(-c3nc(C4CC4)no3)nnc(NCCCN3CCOCC3)c2c1 [Compound 20] | 42.1 ± 8.6 µM | 42.1 ± 8.6 µM |  |
| CN1CCN(CCCNc2nnc(-c3nc(C4CC4)no3)c3ccccc23)CC1 [Compound 21] | 23 ± 5.3 µM | 23.0 ± 5.3 µM |  |

More lines, now with the values ahead:

| Kd [1] | KD [2] | KD ([2]; signal at 100 μM, not fitted) | Structure (SMILES) |
| --- | --- | --- | --- |
| > 100 µM |  |  | CCc1nnc(-c2nnc(NCc3cccnc3)c3ccccc23)o1 [Compound 8] |
| 32.8 ± 11 µM | 32.8 ± 11.0 µM |  | CN(C)CCNc1nnc(-c2nc(C3CC3)no2)c2ccccc12 [Compound 14] |
| > 100 µM |  |  | CCCCNc1nnc(-c2nc(C3CC3)no2)c2ccccc12 [Compound 16] |
| > 100 µM |  |  | COCCNc1nnc(-c2nc(C3CC3)no2)c2ccccc12 [Compound 17] |
| > 100 µM |  |  | c1cncc(CNc2nnc(-c3nc(C4CC4)no3)c3ccccc23)c1 [Compound 18] |
| 11.9 ± 7.1 µM | 11.9 ± 7.1 µM |  | CN(C)CCCNc1nnc(-c2nc(-c3ccc(F)cc3)no2)c2ccccc12 [Compound 23] |
| > 100 µM |  | > 100 µM | Fc1ccc(-c2noc(-c3nnc(NCc4cccnc4)c4ccccc34)n2)cc1 [Compound 24] |
| 13.9 ± 3.2 µM | 13.9 ± 3.2 µM |  | CN1CCN(CCNc2nnc(-c3nc(-c4ccc(F)cc4)no3)c3ccccc23)CC1 [Compound 25] |
